Results as given in patent US10443078B2, “Pichia kudriavzevii NG7 microorganism and uses thereof” (Korea Research Institute of Bioscience and Biotechnology, priority 2014, dated 2019).
Numbered stars: 1 amine (or outer) side, 2 acyl side, 3 side chain; on linkers, the order of the positions; unused ones are H or OH. Square brackets hold non-standard residues; d marks the D form. Peptide text beside a SMILES is read from it. X1 = CC[C@@H](C)[C@@H](O[*:1])C(=O)[*:2]; NMeVal(β-OH) = CN[C@H](C(=O)O)C(C)(C)O; NMeF = CN[C@@H](Cc1ccccc1)C(=O)O; aIle = CC[C@@H](C)[C@H](N)C(=O)O; NMeV = CN[C@H](C(=O)O)C(C)C

Legend:
Assay in all cases: Antibiotic resistance of isolated microorganisms on YPD solid medium
Conditions in all cases: zeocin, G418, nourseothricin, hygromycin 100 μg/mL, cycloheximide 1 μg/mL, aureobasidin A 0.1 μg/mL, 30° C.
[1] = tested on: 2-2 microorganism; format: cell-based, Pichia kudriavzevii
Description: (§1) The antibiotic resistance of the selected three different kinds of microorganisms to various antibiotics was examined. The antibiotics used were zeocin (100 μg/mL), G418 (100 μg/mL), cycloheximide (1 μg/mL), aureobasidin A (0.1 μg/mL), nourseothricin (100 μg/mL), and hygromycin (100 μg/mL). Each of the cell cultures of the isolated microorganisms was dotted on YPD solid medium (yeast extract (1%), peptone (2%), glucose (2%), and agar (2%)) and cultured at 30° C.

[2] = tested on: NG7 microorganism; format: cell-based, Pichia kudriavzevii
Description: as §1

[3] = tested on: NG1 microorganism; format: cell-based, Issatchenkia occidentalis
Description: as §1

Row | Compound | Resistance of microorganism 2-2 to antibiotic [1] | Resistance of microorganism 2-2 to antibiotic ([1]; listed as nourseothricin) | Resistance of microorganism NG7 to antibiotic [2] | Resistance of microorganism NG7 to antibiotic ([2]; listed as nourseothricin) | Resistance of microorganism NG1 to antibiotic [3] | Resistance of microorganism NG1 to antibiotic ([3]; listed as nourseothricin) | Resistance of microorganism 2-2 to antibiotic ([1]; listed as zeocin) | Resistance of microorganism NG7 to antibiotic ([2]; listed as zeocin) | Resistance of microorganism NG1 to antibiotic ([3]; listed as zeocin) | Resistance of microorganism 2-2 to antibiotic ([1]; listed as aureobasidin A) | Resistance of microorganism NG7 to antibiotic ([2]; listed as aureobasidin A) | Resistance of microorganism NG1 to antibiotic ([3]; listed as aureobasidin A) | Resistance of microorganism 2-2 to antibiotic ([1]; listed as cycloheximide) | Resistance of microorganism NG7 to antibiotic ([2]; listed as cycloheximide) | Resistance of microorganism NG1 to antibiotic ([3]; listed as cycloheximide)
1 | nourseothricin | − | no resistance | − | no resistance | − | no resistance |  |  |  |  |  |  |  |  | 
2 | Cc1c(N)nc([C@H](CC(N)=O)NC[C@H](N)C(N)=O)nc1C(=O)N[C@H](C(=O)N[C@H](C)[C@@H](O)[C@H](C)C(=O)N[C@H](C(=O)NCCC1=N[C@@H](c2nc(C(=O)NCCCCN=C(N)N)cs2)CS1)[C@@H](C)O)[C@@H](O[C@@H]1O[C@@H](CO)[C@@H](O)[C@H](O)[C@@H]1O[C@H]1O[C@H](CO)[C@@H](O)[C@H](OC(N)=O)[C@@H]1O)c1cnc[nH]1 [Zeocin, zeocin] | + |  | + |  | + |  | resistance | resistance | resistance |  |  |  |  |  | 
3 | CC[C@@H](C)[C@@H]1NC(=O)[C@@H]2CCCN2C(=O)[C@H](Cc2ccccc2)N(C)C(=O)[C@H](Cc2ccccc2)NC(=O)[C@H](C(C)C)N(C)C(=O)[C@@H]([C@H](C)CC)OC(=O)[C@H](C(C)(C)O)N(C)C(=O)[C@H](CC(C)C)NC(=O)[C@H](C(C)C)N(C)C1=O [Aureobasidin A, aureobasidin A] (cyclo(F[NMeF]P[aIle][NMeV]L[NMeVal(β-OH)][X1][NMeV])) | − |  | − |  | − |  |  |  |  | no resistance | no resistance | no resistance |  |  | 
4 | C[C@@H]1C[C@@H]([C@H](O)CC2CC(=O)NC(=O)C2)C(=O)[C@@H](C)C1 [Cycloheximide, cycloheximide] | + |  | + |  | + |  |  |  |  |  |  |  | resistance | resistance | resistance
5 | CN[C@@H]1[C@@H](O)[C@@H](O[C@@H]2[C@@H](O)[C@H](O[C@H]3O[C@H]([C@@H](C)O)[C@@H](O)[C@H](O)[C@H]3N)[C@@H](N)C[C@H]2N)OC[C@]1(C)O [G418] | resistance and + |  | resistance and + |  | resistance and + |  |  |  |  |  |  |  |  |  | 
